Activity calls are given as the source filed them. The calls are words filed in the database; no cut-off is given here.

The test system of data set [1] is Mycobacterium tuberculosis. Kind of data set: Reduction in intracellular dipeptide D-alanyl-D-alanine pool size in Mycobacterium tuberculosis H37Rv up to 5 times MIC by filter-based mass spectrometry technique. The data set is classed as functional, organism-based.
Data set [2] is described as follows: Drug metabolism in Mycobacterium tuberculosis H37Rv assessed as compound remaining at 0.25 to 5 times MIC for 16 hrs measured 15 to 60 mins post compound washout. The data set is classed as ADME, organism-based. Conditions: Mycobacterium tuberculosis H37Rv cells, read-out: Stability.
Data set [3] deals with T1, Alanine racemase (Mycobacterium tuberculosis) (UniProt P9WQA9).
T1 sequence (whole entry): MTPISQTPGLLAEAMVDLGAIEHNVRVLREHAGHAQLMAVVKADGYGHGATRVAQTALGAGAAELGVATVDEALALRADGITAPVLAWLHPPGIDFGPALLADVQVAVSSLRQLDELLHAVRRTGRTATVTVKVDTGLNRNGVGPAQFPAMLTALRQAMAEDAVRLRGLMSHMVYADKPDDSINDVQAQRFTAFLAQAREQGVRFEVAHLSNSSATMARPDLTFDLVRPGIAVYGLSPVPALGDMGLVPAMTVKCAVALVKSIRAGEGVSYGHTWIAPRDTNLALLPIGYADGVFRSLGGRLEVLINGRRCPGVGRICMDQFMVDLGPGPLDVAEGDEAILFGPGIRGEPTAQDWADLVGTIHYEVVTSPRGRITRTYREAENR
Kind of data set: Inhibition of alanine racemase in Mycobacterium tuberculosis H37Rv at 5 times MIC preincubated for 16 hrs followed by compound re-addition with L-Ala-[13C]-[3H] measured over 8 hrs by LC-MS/MS analysis.

Data set [4] relates to Mycobacterium tuberculosis. Kind of data set: Ratio of MIC for Mycobacterium tuberculosis H37Rv in presence of D-Alanine to MIC for Mycobacterium tuberculosis H37Rv. The data set is classed as functional.
The target in data set [5] is T2, D-alanine--D-alanine ligase (Mycobacterium tuberculosis) (UniProt P9WP31).
T2 sequence (whole entry): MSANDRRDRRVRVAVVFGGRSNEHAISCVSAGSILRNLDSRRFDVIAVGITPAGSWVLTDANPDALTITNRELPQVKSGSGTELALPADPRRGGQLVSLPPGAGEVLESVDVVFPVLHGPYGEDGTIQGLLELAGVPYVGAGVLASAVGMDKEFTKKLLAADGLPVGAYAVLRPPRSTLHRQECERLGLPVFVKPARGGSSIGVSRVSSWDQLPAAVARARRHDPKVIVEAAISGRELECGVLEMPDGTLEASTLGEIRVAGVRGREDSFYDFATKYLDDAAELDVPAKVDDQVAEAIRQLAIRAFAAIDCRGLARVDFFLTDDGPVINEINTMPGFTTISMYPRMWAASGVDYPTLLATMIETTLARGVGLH
The experiment in a line: Inhibition of D-alanine-D-alanine ligase in Mycobacterium tuberculosis H37Rv assessed as inhibition of denovo D-Alanyl-D-alanine synthesis at MIC preincubated for 16 hrs followed by L-Ala-[13C]-[3H] addition measured over 8 hrs by LC-MS/MS analysis.

Data set [6] addresses T2, D-alanine--D-alanine ligase (Mycobacterium tuberculosis). Kind of data set: Inhibition of D-alanine-D-alanine ligase in Mycobacterium tuberculosis H37Rv assessed as depletion in D-Alanyl-D-alanine level preincubated for 16 hrs measured post 24 hrs of compound washout.
The target is the same in data set [7]. The experiment in a line: Inhibition of D-alanine-D-alanine ligase in Mycobacterium tuberculosis H37Rv assessed as inhibition of denovo D-Alanyl-D-alanine synthesis at 2 times MIC preincubated for 16 hrs followed L-Ala-[13C]-[3H] addition measured over 8 hrs by LC-MS/MS analysis.
The test system of data set [8] is Mycobacterium tuberculosis. The experiment in a line: Antimycobacterial activity against Mycobacterium tuberculosis H37Rv at 0.25 to 16 times MIC after 7 days in presence of D-Alanine. The data set is classed as functional, organism-based.
In data set [9] the target is T2, D-alanine--D-alanine ligase (Mycobacterium tuberculosis). The experiment in a line: Competitive inhibition of D-alanine-D-alanine ligase in Mycobacterium tuberculosis H37Rv at MIC preincubated for 16 hrs followed by D-Ala-[2H] addition measured over 8 hrs by LC-MS/MS analysis.
Data set [10] deals with Mycobacterium tuberculosis. Kind of data set: Antimycobacterial activity against Mycobacterium tuberculosis H37Rv at 0.25 to 16 times MIC after 7 days in presence of L-Alanine. Type of data set: functional, organism-based.
In data set [11] the test system is Mycobacterium tuberculosis. The experiment in a line: Reduction in intracellular total Alanine pool size in Mycobacterium tuberculosis H37Rv at 0.25 to 5 times MIC by filter-based technique. Type of data set: functional, organism-based.
Data set [12] relates to Mycobacterium tuberculosis. The experiment in a line: Reduction in intracellular dipeptide D-alanyl-D-alanine pool size in Mycobacterium tuberculosis H37Rv at MIC by filter-based mass spectrometry technique. Type of data set: functional, organism-based.
Data set [13] concerns Mycobacterium tuberculosis. Kind of data set: Reduction in intracellular total Alanine pool size in Mycobacterium tuberculosis H37Rv at MIC by filter-based mass spectrometry technique. The data set is classed as functional, organism-based.

In the case of `CN[C@@H]1[C@H](O[C@H]2[C@H](O[C@H]3[C@H](O)[C@@H](O)[C@H](N=C(N)N)[C@@H](O)[C@@H]3N=C(N)N)O[C@@H](C)[C@]2(O)C=O)O[C@@H](CO)[C@H](O)[C@H]1O`, the result in data set [1] was inactive.
For `N[C@@H]1CON=C1O` [CYCLOSERINE], in data set [2], the remaining at 16 h is < 10%.
Take `N[C@@H]1CONC1=O` [CYCLOSERINE]: the Activity entry in data set [1] is “Dose-dependent effect”. Also, the inhibition entry in [3] is “inactive”. The Ratio in [4] is reported as 2. Also, the inhibition entry in [5] and in data set [7] was “Active” throughout. In addition, the inhibition entry in data set [6] was “Dose-dependent effect”. In addition, the result in data set [8] and in data set [9] was inactive. For the same compound, the outcome in data set [10] and in [11] was Active.
Take `N[C@H]1CONC1=O` [LEVCYCLOSERINE]: the result in [12] and in [13] was Active. The Ratio in data set [4] was 4. In addition, the result in [8] and in data set [10] was inactive.
